Results: the supplement of paper PMC13386468

What was measured:
Test in all cases: IC50 for competition of protein binding to Kinobeads
Conditions in all cases: assay detail: Kinobeads competition in P. falciparum blood-stage lysate
UniProt A0A144A2H0 = target: UniProt A0A144A2H0
UniProt C0H517 = target: UniProt C0H517
UniProt C6KSQ1 = target: UniProt C6KSQ1
UniProt C6KT82 = target: UniProt C6KT82
UniProt O77312 = target: UniProt O77312
UniProt O96221 = target: UniProt O96221
UniProt Q7K6A4 = target: UniProt Q7K6A4
UniProt Q8I1P3 = target: UniProt Q8I1P3
UniProt Q8I1U8 = target: UniProt Q8I1U8
UniProt Q8I206 = target: UniProt Q8I206
UniProt Q8I298 = target: UniProt Q8I298
UniProt Q8I2F2 = target: UniProt Q8I2F2
UniProt Q8I2V4 = target: UniProt Q8I2V4
UniProt Q8I3I6 = target: UniProt Q8I3I6
UniProt Q8I3T8 = target: UniProt Q8I3T8
UniProt Q8I4V7 = target: UniProt Q8I4V7
UniProt Q8I5F4 = target: UniProt Q8I5F4
UniProt Q8I5X8 = target: UniProt Q8I5X8
UniProt Q8I5Y9 = target: UniProt Q8I5Y9
UniProt Q8IAM0 = target: UniProt Q8IAM0
UniProt Q8IB60 = target: UniProt Q8IB60
UniProt Q8IBC3 = target: UniProt Q8IBC3
UniProt Q8IBK8 = target: UniProt Q8IBK8
UniProt Q8IBS5 = target: UniProt Q8IBS5
UniProt Q8IBT2 = target: UniProt Q8IBT2
UniProt Q8IBZ9 = target: UniProt Q8IBZ9
UniProt Q8ID33 = target: UniProt Q8ID33
UniProt Q8ID59 = target: UniProt Q8ID59
UniProt Q8ID72 = target: UniProt Q8ID72
UniProt Q8IDB8 = target: UniProt Q8IDB8
UniProt Q8IDD9 = target: UniProt Q8IDD9
UniProt Q8IDR9 = target: UniProt Q8IDR9
UniProt Q8IEQ1 = target: UniProt Q8IEQ1
UniProt Q8IES0 = target: UniProt Q8IES0
UniProt Q8II36 = target: UniProt Q8II36
UniProt Q8IIB6 = target: UniProt Q8IIB6
UniProt Q8IIB7 = target: UniProt Q8IIB7
UniProt Q8IIJ4 = target: UniProt Q8IIJ4
UniProt Q8IIU5 = target: UniProt Q8IIU5
UniProt Q8IIW5 = target: UniProt Q8IIW5
UniProt Q8IJ37 = target: UniProt Q8IJ37
UniProt Q8IJS1 = target: UniProt Q8IJS1
UniProt Q8IJS7 = target: UniProt Q8IJS7
UniProt Q8IJZ9 = target: UniProt Q8IJZ9
UniProt Q8IKH3 = target: UniProt Q8IKH3
UniProt Q8IKQ7 = target: UniProt Q8IKQ7
UniProt Q8IL53 = target: UniProt Q8IL53
UniProt Q8IL56 = target: UniProt Q8IL56
UniProt Q8IL88 = target: UniProt Q8IL88
UniProt Q8IM66 = target: UniProt Q8IM66
UniProt Q9TY99 = target: UniProt Q9TY99
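Also: native unpurified kinases from lysate captured on beads bearing immobilized kinase inhibitors, with bead-bound kinases quantified by mass spectrometry across compound doses.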

Chain of UniProt A0A144A2H0 (A0A144A2H0 whole entry): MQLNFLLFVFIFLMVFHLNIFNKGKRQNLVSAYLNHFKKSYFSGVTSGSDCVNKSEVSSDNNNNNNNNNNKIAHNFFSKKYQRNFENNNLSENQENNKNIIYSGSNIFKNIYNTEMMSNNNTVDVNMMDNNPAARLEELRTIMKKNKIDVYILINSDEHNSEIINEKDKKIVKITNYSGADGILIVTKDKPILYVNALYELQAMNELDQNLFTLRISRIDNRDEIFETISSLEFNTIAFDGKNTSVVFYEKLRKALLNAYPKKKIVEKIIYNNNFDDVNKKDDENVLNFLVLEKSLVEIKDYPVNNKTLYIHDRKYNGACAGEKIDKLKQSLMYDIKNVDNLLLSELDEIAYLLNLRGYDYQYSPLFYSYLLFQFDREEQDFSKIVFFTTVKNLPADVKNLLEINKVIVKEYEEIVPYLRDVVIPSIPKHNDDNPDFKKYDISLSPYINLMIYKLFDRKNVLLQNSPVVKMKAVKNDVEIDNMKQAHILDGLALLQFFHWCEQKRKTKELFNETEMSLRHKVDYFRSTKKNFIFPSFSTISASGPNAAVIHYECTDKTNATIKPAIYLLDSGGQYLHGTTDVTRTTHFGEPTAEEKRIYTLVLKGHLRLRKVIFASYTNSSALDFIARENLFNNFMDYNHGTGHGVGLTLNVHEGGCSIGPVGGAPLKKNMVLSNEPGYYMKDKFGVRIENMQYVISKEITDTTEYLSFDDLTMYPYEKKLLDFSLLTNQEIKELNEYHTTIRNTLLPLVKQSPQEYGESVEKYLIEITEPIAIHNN
Chain of UniProt Q8II36 (Q8II36 whole entry): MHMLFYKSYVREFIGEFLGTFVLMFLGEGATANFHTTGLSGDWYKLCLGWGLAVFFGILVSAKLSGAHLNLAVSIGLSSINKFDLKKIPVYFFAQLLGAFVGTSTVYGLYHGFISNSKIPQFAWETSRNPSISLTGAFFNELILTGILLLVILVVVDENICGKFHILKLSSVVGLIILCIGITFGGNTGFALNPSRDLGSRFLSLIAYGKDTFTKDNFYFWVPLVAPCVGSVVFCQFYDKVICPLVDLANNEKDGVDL
Chain of UniProt Q8IBS5 (Q8IBS5 whole entry): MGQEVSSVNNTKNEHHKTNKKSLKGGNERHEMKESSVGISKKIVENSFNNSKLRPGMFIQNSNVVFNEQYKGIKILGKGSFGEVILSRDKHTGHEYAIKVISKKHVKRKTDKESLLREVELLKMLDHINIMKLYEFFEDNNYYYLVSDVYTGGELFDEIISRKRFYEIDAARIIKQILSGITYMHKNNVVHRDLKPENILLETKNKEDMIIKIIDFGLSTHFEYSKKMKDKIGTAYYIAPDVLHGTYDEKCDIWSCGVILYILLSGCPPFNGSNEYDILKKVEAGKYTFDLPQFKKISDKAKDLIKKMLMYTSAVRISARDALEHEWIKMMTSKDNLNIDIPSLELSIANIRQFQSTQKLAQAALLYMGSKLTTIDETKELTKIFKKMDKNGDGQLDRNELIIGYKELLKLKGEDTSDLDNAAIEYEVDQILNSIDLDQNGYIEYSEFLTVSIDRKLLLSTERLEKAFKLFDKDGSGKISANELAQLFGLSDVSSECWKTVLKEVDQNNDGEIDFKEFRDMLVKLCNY
Chain of UniProt Q8IBZ9 (Q8IBZ9 whole entry): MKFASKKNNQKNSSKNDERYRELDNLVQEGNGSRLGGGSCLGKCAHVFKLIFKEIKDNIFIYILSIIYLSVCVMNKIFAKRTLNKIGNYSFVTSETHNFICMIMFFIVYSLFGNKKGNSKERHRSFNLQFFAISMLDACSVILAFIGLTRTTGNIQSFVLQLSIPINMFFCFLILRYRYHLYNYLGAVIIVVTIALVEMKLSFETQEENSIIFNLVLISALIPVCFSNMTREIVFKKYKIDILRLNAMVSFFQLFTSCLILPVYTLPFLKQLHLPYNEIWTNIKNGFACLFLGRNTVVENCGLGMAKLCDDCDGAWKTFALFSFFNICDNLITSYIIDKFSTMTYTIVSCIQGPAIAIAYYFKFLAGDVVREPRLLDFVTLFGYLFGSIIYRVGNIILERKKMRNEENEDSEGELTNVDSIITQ

`O=c1[nH]c2ccc(Cl)cc2c(NC2CN3CCC2CC3)c1-c1nc2ccccc2[nH]1` (stereo unspecified) [CHIR-124] was tested, and the IC50 (UniProt A0A144A2H0) was greater than 20 µM, the IC50 (UniProt C0H517) was greater than 20 µM and the IC50 (UniProt C6KSQ1) was 0.299 µM. The IC50 (UniProt C6KT82) was greater than 20 µM, the IC50 (UniProt O77312) was greater than 20 µM and the IC50 (UniProt O96221) was greater than 20 µM. It also gave an IC50 (UniProt Q7K6A4) greater than 20 µM, an IC50 (UniProt Q8I1P3) greater than 20 µM and an IC50 (UniProt Q8I1U8) greater than 20 µM. The IC50 (UniProt Q8I206) was greater than 20 µM, the IC50 (UniProt Q8I298) was greater than 20 µM and the IC50 (UniProt Q8I2F2) was greater than 20 µM. It also gave an IC50 (UniProt Q8I2V4) greater than 20 µM, an IC50 (UniProt Q8I3I6) greater than 20 µM and an IC50 (UniProt Q8I3T8) greater than 20 µM. The IC50 (UniProt Q8I4V7) was greater than 20 µM, the IC50 (UniProt Q8I5F4) was greater than 20 µM and the IC50 (UniProt Q8I5X8) was greater than 20 µM. It also gave an IC50 (UniProt Q8I5Y9) greater than 20 µM, an IC50 (UniProt Q8IAM0) greater than 20 µM and an IC50 (UniProt Q8IB60) greater than 20 µM. It also gave an IC50 (UniProt Q8IBC3) greater than 20 µM, an IC50 (UniProt Q8IBK8) greater than 20 µM and an IC50 (UniProt Q8IBS5) greater than 20 µM. The IC50 (UniProt Q8IBT2) was greater than 20 µM, the IC50 (UniProt Q8IBZ9) was greater than 20 µM and the IC50 (UniProt Q8ID33) was greater than 20 µM. The IC50 (UniProt Q8ID59) was greater than 20 µM, the IC50 (UniProt Q8ID72) was greater than 20 µM and the IC50 (UniProt Q8IDB8) was greater than 20 µM. The IC50 (UniProt Q8IDD9) was greater than 20 µM, the IC50 (UniProt Q8IDR9) was greater than 20 µM and the IC50 (UniProt Q8IEQ1) was greater than 20 µM. It also gave an IC50 (UniProt Q8IES0) greater than 20 µM, an IC50 (UniProt Q8II36) greater than 20 µM and an IC50 (UniProt Q8IIB6) greater than 20 µM. The IC50 (UniProt Q8IIB7) was greater than 20 µM, the IC50 (UniProt Q8IIJ4) was greater than 20 µM and the IC50 (UniProt Q8IIU5) was greater than 20 µM. For the same compound, the IC50 (UniProt Q8IIW5) was greater than 20 µM, the IC50 (UniProt Q8IJ37) was greater than 20 µM and the IC50 (UniProt Q8IJS1) was greater than 20 µM. It also gave an IC50 (UniProt Q8IJS7) greater than 20 µM, an IC50 (UniProt Q8IJZ9) greater than 20 µM and an IC50 (UniProt Q8IKH3) greater than 20 µM. For the same compound, the IC50 (UniProt Q8IKQ7) was greater than 20 µM, the IC50 (UniProt Q8IL53) was greater than 20 µM and the IC50 (UniProt Q8IL56) was greater than 20 µM. It also gave an IC50 (UniProt Q8IL88) greater than 20 µM, an IC50 (UniProt Q8IM66) greater than 20 µM and an IC50 (UniProt Q9TY99) greater than 20 µM.
